Laboratory results reported in patent US8119808B2, “Tetrahydroquinoline derivatives as cannabinoid receptor modulators” (Bristol-Myers Squibb Company, priority 2003, dated 2012).

- melting point: 174 to 175 °C
Structure (SMILES): N#Cc1ccc2c(c1)C[C@H](NS(=O)(=O)c1ccccc1)CN2C(=O)c1ccccc1
